Laboratory results from patent US20250230193A1, “CYCLIC COMPOUND HAVING SELECTIVE KRAS INHIBITORY EFFECT ON HRAS AND NRAS” (CHUGAI SEIYAKU KABUSHIKI KAISHA, priority 2022, published 2025).
Where a SMILES comes first, the peptide text is derived from it. Bridges are numbered along the chain shown (N, C = ends). [ ]: non-standard residue; d: D form. The star is where a group is joined. hPhe(3-Cl-4-CF3) = N[C@@H](CCc1ccc(C(F)(F)F)c(Cl)c1)C(=O)O; NPrPhe(4-Me) = CCCN[C@@H](Cc1ccc(C)cc1)C(=O)O; NMeGly(cPent) = CN[C@H](C(=O)O)C1CCCC1; NMeD = CN[C@@H](CC(=O)O)C(=O)O; NMeL = CN[C@@H](CC(C)C)C(=O)O; Morpholide = C1CN(*)CCO1; Ac5c = NC1(C(=O)O)CCCC1; NEtG = CCNCC(=O)O; Sar = CNCC(=O)O

Assays:
[1] = molecular target: GDP-bound NRAS wild-type protein (Homo sapiens, UniProt P01111); assay: Binding to NRAS by surface plasmon resonance (SPR), Single Cycle Kinetics
Sequence of GDP-bound NRAS wild-type protein (P01111 whole entry): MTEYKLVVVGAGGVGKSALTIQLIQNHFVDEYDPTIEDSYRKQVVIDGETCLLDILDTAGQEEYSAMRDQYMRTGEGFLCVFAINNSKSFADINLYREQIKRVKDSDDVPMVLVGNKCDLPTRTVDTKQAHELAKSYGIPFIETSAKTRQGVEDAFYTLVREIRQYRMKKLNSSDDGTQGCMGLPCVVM

[2] = molecular target: GDP-bound HRAS wild-type protein (Homo sapiens, UniProt P01112); assay: Binding to HRAS by surface plasmon resonance (SPR), Single Cycle Kinetics
Sequence of GDP-bound HRAS wild-type protein (P01112 whole entry): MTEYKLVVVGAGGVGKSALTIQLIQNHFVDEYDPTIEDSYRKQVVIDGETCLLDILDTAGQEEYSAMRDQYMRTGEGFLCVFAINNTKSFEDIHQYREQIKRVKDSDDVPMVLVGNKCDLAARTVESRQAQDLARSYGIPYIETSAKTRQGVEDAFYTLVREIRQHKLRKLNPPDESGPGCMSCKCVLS

[3] = GDP-bound NRAS wild-type vs GDP-bound KRAS wild-type, SPR
[4] = GDP-bound HRAS wild-type vs GDP-bound KRAS wild-type, SPR

## CCO[C@@H]1C[C@H]2C(=O)NC3(CCC3)C(=O)N(C)[C@@H](C3CCCC3)C(=O)N(C)[C@H](C(=O)N3CCOCC3)CC(=O)N(C)[C@@H](C)C(=O)N[C@@H]([C@@H](C)CC)C(=O)N(C)CC(=O)N(C)[C@H]3CCCCN(C3=O)[C@@H](Cc3ccc(C(F)(F)F)cc3)C(=O)N(C)CC(=O)N[C@@H](CCc3cc(F)c(C(F)(F)F)c(F)c3)C(=O)N2C1 [PP0585]
[1]; KD ratio NRAS/KRAS, SPR
  NRAS/KRAS (ratio of KD value with respect to GDP-bound NRAS wild-type protein to KD value with respect to KRAS): B (a compound having 3 or more and less than 10 is denoted as B)
[2]; KD ratio HRAS/KRAS, SPR
  HRAS/KRAS (ratio of KD value with respect to GDP-bound HRAS wild-type protein to KD value with respect to KRAS): B (a compound having 3 or more and less than 10 is denoted as B)

## CCO[C@@H]1C[C@H]2C(=O)NC3(CC(C)(C)C3)C(=O)N(C)[C@@H](C3CCCC3)C(=O)N(C)[C@H](C(=O)N(C)CC)CC(=O)N(C)[C@@H](CC(C)C)C(=O)N[C@@H]([C@@H](C)CC)C(=O)NCC(=O)N(C)[C@H]3C/C=C\CCN(C3=O)[C@@H](Cc3ccc(C(F)(F)F)cc3)C(=O)N(C)CC(=O)N[C@@H](CCc3cc(F)c(C(F)(F)F)c(F)c3)C(=O)N2C1 [PP1771]
[1]; [3]
  NRAS/KRAS (ratio of KD value for NRAS to KD value for KRAS): A (a compound having 10 or more and less than 20 is denoted as A)
[2]; [4]
  HRAS/KRAS (ratio of KD value for HRAS to KD value for KRAS): A (a compound having 10 or more and less than 20 is denoted as A)

## CC[C@H](C)[C@@H]1NC(=O)[C@H](CC)N(C)C(=O)C[C@@H](C(=O)N(CC)CC)N(C)C(=O)[C@H](C2CCCC2)N(C)C(=O)C2(CC(C)(C)C2)NC(=O)[C@@H]2C[C@H](C)CN2C(=O)[C@H](CCc2ccc(C(F)(F)F)c(OC)c2)NC(=O)CN(C)C(=O)[C@H](Cc2ccc(C)cc2)N2CC/C=C\C[C@@H](C2=O)N(C)C(=O)CN(C)C1=O [PP1839]
[1]; [3]
  NRAS/KRAS (ratio of KD value for NRAS to KD value for KRAS): A (a compound having 10 or more and less than 20 is denoted as A)
[2]; [4]
  HRAS/KRAS (ratio of KD value for HRAS to KD value for KRAS): B (a compound having 3 or more and less than 10 is denoted as B)

## CCO[C@@H]1C[C@H]2C(=O)NC3(CC(C)(C)C3)C(=O)N(C)[C@@H](C3CCCC3)C(=O)N(C)[C@H](C(=O)N(C)C)CC(=O)N(C)[C@@H](CC(C)C)C(=O)N[C@@H]([C@@H](C)CC)C(=O)N(C)CC(=O)N(C)[C@H]3C/C=C\CCN(C3=O)[C@@H](Cc3ccc(C(F)(F)F)cc3)C(=O)N(C)CC(=O)N[C@@H](CCc3cc(F)c(C(F)(F)F)c(F)c3)C(=O)N2C1 [PP1650, (2S,8S,12R,14S,20S,23S,27S,30S,36S,38Z)-20-cyclopentyl-8-[2-[3,5-difluoro-4-(trifluoromethyl)phenyl]ethyl]-12-ethoxy-27-isobutyl-N,N,3′,3′,4,19,22,26,32,35-decamethyl-30-[(1S)-1-methylpropyl]-3,6,9,15,18,21,25,28,31,34,42-undecaoxo-2-[[4-(trifluoromethyl)phenyl]methyl]spiro[1,4,7,10,16,19,22,26,29,32,35-undecazatricyclo[34.5.1.0^10,14]dotetracont-38-ene-17,1′-cyclobutane]-23-carboxamide]
[1]; [3]
  NRAS/KRAS (ratio of KD value for NRAS to KD value for KRAS): A (a compound having 10 or more and less than 20 is denoted as A)
[2]; [4]
  HRAS/KRAS (ratio of KD value for HRAS to KD value for KRAS): A (a compound having 10 or more and less than 20 is denoted as A)

## CCC(CC)[C@H]1C(=O)N(C)[C@H](C(=O)N(C)C)CC(=O)N(C)[C@H]2CCC/C=C/c3ccc(cc3)C[C@@H](C(=O)N(C)CC(=O)N[C@@H](CCc3cc(F)c(C(F)(F)F)c(F)c3)C(=O)N3C[C@H](OC(C)C)C[C@H]3C(=O)NC3(CC(C)(C)C3)C(=O)N1C)N1CC/C=C\C[C@@H](C1=O)N(C)C(=O)CN(C)C(=O)[C@H]([C@@H](C)CC)NC2=O [PP2594]
[1]; KD ratio NRAS/KRAS, class symbols
  NRAS/KRAS (ratio of KD value with respect to GDP-bound NRAS wild-type protein to KD value with respect to KRAS): A (a compound having 10 or more and less than 20 is denoted as A)
[2]; KD ratio HRAS/KRAS, class symbols
  HRAS/KRAS (ratio of KD value with respect to GDP-bound HRAS wild-type protein to KD value with respect to KRAS): A (a compound having 10 or more and less than 20 is denoted as A)

## CCO[C@@H]1C[C@H]2C(=O)NC3(CC(C)(C)C3)C(=O)N(C)[C@@H](C(CC)CC)C(=O)N(C)[C@H](C(=O)N(C)C)CC(=O)N(C)[C@@H](CC3CC3)C(=O)N[C@@H]([C@@H](C)CC)C(=O)N(C)CC(=O)N(C)[C@H]3C/C=C\CCN(C3=O)[C@@H](Cc3ccc(C)cc3)C(=O)N(C)CC(=O)N[C@@H](CCc3ccc(Cl)c(Cl)c3)C(=O)N2C1 [PP2182]
[1]; SPR, GDP-bound NRAS wild-type vs GDP-bound KRAS wild-type
  NRAS/KRAS (ratio of KD value with respect to NRAS to KD value with respect to KRAS): AA (a compound having 20 or more is denoted as AA)
[2]; SPR, GDP-bound HRAS wild-type vs GDP-bound KRAS wild-type
  HRAS/KRAS (ratio of KD value with respect to HRAS to KD value with respect to KRAS): A (a compound having 10 or more and less than 20 is denoted as A)

## CCCN1C(=O)CN(C)C(=O)CN(C)C(=O)[C@H]([C@@H](C)CC)NC(=O)[C@H](CC(C)C)N(C)C(=O)C[C@@H](C(=O)N2CCOCC2)N(C)C(=O)[C@H](C2CCCC2)N(C)C(=O)C2(CCCC2)NC(=O)[C@@H]2CCCN2C(=O)[C@H](CCc2ccc(C(F)(F)F)c(Cl)c2)NC(=O)CN(CC)C(=O)[C@@H]1Cc1ccc(C)cc1 [PP0066] ([NMeL]I[Sar][Sar][NPrPhe(4-Me)][NEtG][hPhe(3-Cl-4-CF3)]P[Ac5c][NMeGly(cPent)][NMeD]-Morpholide; lactam N-11)
[1]; KD ratio NRAS/KRAS, SPR
  NRAS/KRAS (ratio of KD for GDP-bound NRAS wild-type to KD for KRAS): B (a compound having 3 or more and less than 10 is denoted as B)
[2]; KD ratio HRAS/KRAS, SPR
  HRAS/KRAS (ratio of KD for GDP-bound HRAS wild-type to KD for KRAS): C (A compound having a KD ratio of 0.1 or more and less than 3 is denoted as C)
